From patent US5494932A, “Sulfonic stilbene derivatives in the treatment of viral disease” (Merrell Dow Pharmaceuticals Inc., priority 1991, dated 1996)
Where “and” joins values, the source holds several entries; their conditions need not be identical. Equal values may be shown once. Read-outs that look alike come from different tables or passages of the source.

How the values were obtained:
MT-4 cells = assay: Cytotoxicity in MT-4 cells, tetrazolium reduction assay; assay type: cell-based, human
HIV-1 infected JM cells = assay: Treatment of HIV-1 infected JM cells with DIDS, SITS and ddC; assay type: cell-based, HIV-1 (human T cell line JM)
Procedure: Protocol: JM cells were infected with HIV to give approximately 100 syncytia after 3 days. Virus adsorption was at room temperature for 2 hours. The cells were then washed thoroughly and distributed in wells of a tissue culture plate at a concentration of 1×10^5 cells/well. At 24 hours post infection either DIDS (100 μg/ml), SITS (100 μg/ml), or ddC (5 μM) were added to wells having infected cells. As virus controls, some wells had no drug added. At 42 hours post infection other wells received either ddC (5 μM), SITS (100 μg/ml), or DIDS (100, 50, 25, 12.5, 6.25 μg/ml). Syncytia were scored at 3 and 4 days post-infection and the supernatant fluids were harvested after 3 and 4 days for p24 core antigen determination.

HIV-1 = assay: Back titration of cell-free supernatants (infectivity) on fresh uninfected JM cells; assay type: cell-based, HIV-1 (human T cell line JM); conditions: for viral infectivity in the cell-free supernatants: data not shown
Procedure: Protocol: JM cells were infected with HIV-1 to give a multiplicity of infection of 0.001. Virus adsorption was for 2 hours at room temperature. The cells were washed and distributed into wells containing different concentrations of test compounds and incubated. After 2 days the cells were observed and syncytia were counted. The cell-free supernatant fluids were harvested at 4 and 6 days post infection and assayed for levels of p24 viral core antigen and after 6 days the supernatants were also titrated to determine levels of infectivity.
*Syncytia-forming unit; cellfree supernatants from virus infected cells
having received the indicated concentration of compounds were incubated
with fresh uninfected JM cells and syncytia were scored to determine the
number of infectious units/ml.
supernatants from virusinfected control cells not having received drug

HCMV = assay: Plaque reduction assay, HCMV; assay type: cell-based
Procedure: Protocol: Plaque reduction assay. Treatment after adsorption during incubation.

[1] = system: virus-induced cell fusion (gp120-CD4 dependent); assay: Anti-syncytial cocultivation assay: H9 cells chronically infected with HIV-1 RF mixed with uninfected C8166 cells; assay type: cell-based, HIV-1 RF; human H9 and C8166 cells; conditions: 200 μg/ml; Panel C

O=S(=O)(O)c1cc(N=C=S)ccc1C=Cc1ccc(N=C=S)cc1S(=O)(=O)O [DIDS, 4,4'-diisothiocyanatostilbene-2,2'-disulfonic acid]
cytotoxicity at antiviral concentrations (MT-4 cells): noncytotoxic
Mean syncytia/well 3 days p.i. (HIV-1 infected JM cells; 6 μg/ml, added 42 hr): As VC
Mean syncytia/well 4 days p.i. (HIV-1 infected JM cells; 6 μg/ml, added 42 hr): As VC
p24 antigen 3 days p.i. (HIV-1 infected JM cells; 6 μg/ml, added 42 hr): 18000 pg/mL
p24 antigen 4 days p.i. (HIV-1 infected JM cells; 6 μg/ml, added 42 hr): 34000 pg/mL
Mean syncytia/well 3 days p.i. (HIV-1 infected JM cells; 12 μg/ml, added 42 hr): As VC
Mean syncytia/well 4 days p.i. (HIV-1 infected JM cells; 12 μg/ml, added 42 hr): As VC
p24 antigen 3 days p.i. (HIV-1 infected JM cells; 12 μg/ml, added 42 hr): 210000 pg/mL
p24 antigen 4 days p.i. (HIV-1 infected JM cells; 12 μg/ml, added 42 hr): 390000 pg/mL
Mean syncytia/well 3 days p.i. (HIV-1 infected JM cells; 25 μg/ml, added 42 hr): As VC
Mean syncytia/well 4 days p.i. (HIV-1 infected JM cells; 25 μg/ml, added 42 hr): As VC
p24 antigen 3 days p.i. (HIV-1 infected JM cells; 25 μg/ml, added 42 hr): 15000 pg/mL
p24 antigen 4 days p.i. (HIV-1 infected JM cells; 25 μg/ml, added 42 hr): 59000 pg/mL
Mean syncytia/well 3 days p.i. (HIV-1 infected JM cells; 50 μg/ml, added 42 hr): > 80
Mean syncytia/well 4 days p.i. (HIV-1 infected JM cells; 50 μg/ml, added 42 hr): 100
p24 antigen 3 days p.i. (HIV-1 infected JM cells; 50 μg/ml, added 42 hr): 19200 pg/mL
p24 antigen 4 days p.i. (HIV-1 infected JM cells; 50 μg/ml, added 42 hr): 63000 pg/mL
Mean syncytia/well 3 days p.i. (HIV-1 infected JM cells; 100 μg/ml, added 24 hr): 0
Mean syncytia/well 4 days p.i. (HIV-1 infected JM cells; 100 μg/ml, added 24 hr): 20
p24 antigen 3 days p.i. (HIV-1 infected JM cells; 100 μg/ml, added 24 hr): 6100 pg/mL
p24 antigen 4 days p.i. (HIV-1 infected JM cells; 100 μg/ml, added 24 hr): 15800 pg/mL
Mean syncytia/well 3 days p.i. (HIV-1 infected JM cells; 100 μg/ml, added 42 hr): 34
Mean syncytia/well 4 days p.i. (HIV-1 infected JM cells; 100 μg/ml, added 42 hr): 70
p24 antigen 3 days p.i. (HIV-1 infected JM cells; 100 μg/ml, added 42 hr): 19800 pg/mL
p24 antigen 4 days p.i. (HIV-1 infected JM cells; 100 μg/ml, added 42 hr): 20900 pg/mL
activity at 6 µg/mL (HIV-1 infected JM cells; Human immunodeficiency virus 1, 72 h, 6 μg/ml, added 42 hr, read-out: p24 antigen 3 days p.i., % control): 38%
activity at 12 µg/mL (HIV-1 infected JM cells; Human immunodeficiency virus 1, 72 h, 12 μg/ml, added 42 hr, read-out: p24 antigen 3 days p.i., % control): > 100%
activity at 25 µg/mL (HIV-1 infected JM cells; Human immunodeficiency virus 1, 72 h, 25 μg/ml, added 42 hr, read-out: p24 antigen 3 days p.i., % control): 32%
activity at 50 µg/mL (HIV-1 infected JM cells; Human immunodeficiency virus 1, 72 h, 50 μg/ml, added 42 hr, read-out: p24 antigen 3 days p.i., % control): 41%
activity at 100 µg/mL (HIV-1 infected JM cells; Human immunodeficiency virus 1, 72 h, 100 μg/ml, added 24 hr, read-out: p24 antigen 3 days p.i., % control): 13%
activity at 100 µg/mL (HIV-1 infected JM cells; Human immunodeficiency virus 1, 72 h, 100 μg/ml, added 42 hr, read-out: p24 antigen 3 days p.i., % control): 42%
activity at 6 µg/mL (HIV-1 infected JM cells; Human immunodeficiency virus 1, 96 h, 6 μg/ml, added 42 hr, read-out: p24 antigen 4 days p.i., % control): 38%
activity at 12 µg/mL (HIV-1 infected JM cells; Human immunodeficiency virus 1, 96 h, 12 μg/ml, added 42 hr, read-out: p24 antigen 4 days p.i., % control): 44%
activity at 25 µg/mL (HIV-1 infected JM cells; Human immunodeficiency virus 1, 96 h, 25 μg/ml, added 42 hr, read-out: p24 antigen 4 days p.i., % control): 66%
activity at 50 µg/mL (HIV-1 infected JM cells; Human immunodeficiency virus 1, 96 h, 50 μg/ml, added 42 hr, read-out: p24 antigen 4 days p.i., % control): 70%
activity at 100 µg/mL (HIV-1 infected JM cells; Human immunodeficiency virus 1, 96 h, 100 μg/ml, added 24 hr, read-out: p24 antigen 4 days p.i., % control): 18%
activity at 100 µg/mL (HIV-1 infected JM cells; Human immunodeficiency virus 1, 96 h, 100 μg/ml, added 42 hr, read-out: p24 antigen 4 days p.i., % control): 23%
Back titration of cell-free supernatants at 6 days p.i. (HIV-1; 12.5 μg/ml): 2.4 × 10^3 SFUs/ml
Back titration of cell-free supernatants at 6 days p.i. (HIV-1; 50 μg/ml): < 10^1 SFUs/ml
Back titration of cell-free supernatants at 6 days p.i. (HIV-1; 100 μg/ml): < 10^1 SFUs/ml
viral infectivity in the cell-free supernatants (HIV-1): absence of viral infectivity
Plaque counts (HCMV; 1 μg/ml, first count): 15
Plaque counts (HCMV; 1 μg/ml, second count): 14
Plaque counts (HCMV; 10 μg/ml, first count): 16
Plaque counts (HCMV; 10 μg/ml, second count): 12
Plaque counts (HCMV; 10 μg/ml, third count): 11
Plaque counts (HCMV; 100 μg/ml, first count): 3
Plaque counts (HCMV; 100 μg/ml, second count): 4
Plaque counts (HCMV; 100 μg/ml, third count): 3
Plaque counts (HCMV; 1000 μg/ml, first count): 0
Plaque counts (HCMV; 1000 μg/ml, second count): 0
Plaque counts (HCMV; 1000 μg/ml, third count): 0
activity at 1 µg/mL (HCMV; Human betaherpesvirus 5, 1 μg/ml, read-out: Mean % VC (plaques)): 49%
activity at 10 µg/mL (HCMV; Human betaherpesvirus 5, 10 μg/ml, read-out: Mean % VC (plaques)): 43%
activity at 100 µg/mL (HCMV; Human betaherpesvirus 5, 100 μg/ml, read-out: Mean % VC (plaques)): 10%
activity at 1000 µg/mL (HCMV; Human betaherpesvirus 5, 1000 μg/ml, read-out: Mean % VC (plaques)): 0%

O=S(=O)(O)c1cc(N=C=S)ccc1CCc1ccc(N=C=S)cc1S(=O)(=O)O [H2 DIDS, 4,4'-diisothiocyanatodihydrostilbene-2,2'-disulfonic acid]
cytotoxicity at antiviral concentrations (MT-4 cells): noncytotoxic

CC(=O)Nc1ccc(C=Cc2ccc(N=C=S)cc2S(=O)(=O)O)c(S(=O)(=O)O)c1 [SITS, 4-acetamido-4'-isothiocyanatostilbene-2,2'-disulfonic acid]
cell fusion / syncytia [1]: had no effect
Mean syncytia/well 3 days p.i. (HIV-1 infected JM cells; 100 μg/ml, added 24 hr): As VC
Mean syncytia/well 4 days p.i. (HIV-1 infected JM cells; 100 μg/ml, added 24 hr): As VC
p24 antigen 3 days p.i. (HIV-1 infected JM cells; 100 μg/ml, added 24 hr): 18000 pg/mL
p24 antigen 4 days p.i. (HIV-1 infected JM cells; 100 μg/ml, added 24 hr): 62500 pg/mL
Mean syncytia/well 3 days p.i. (HIV-1 infected JM cells; 100 μg/ml, added 42 hr): As VC
Mean syncytia/well 4 days p.i. (HIV-1 infected JM cells; 100 μg/ml, added 42 hr): As VC
p24 antigen 3 days p.i. (HIV-1 infected JM cells; 100 μg/ml, added 42 hr): 7000 pg/mL
p24 antigen 4 days p.i. (HIV-1 infected JM cells; 100 μg/ml, added 42 hr): 95000 pg/mL
activity at 100 µg/mL (HIV-1 infected JM cells; Human immunodeficiency virus 1, 72 h, read-out: p24 antigen 3 days p.i., % control, 100 μg/ml, added 24 hr): 38%
activity at 100 µg/mL (HIV-1 infected JM cells; Human immunodeficiency virus 1, 72 h, read-out: p24 antigen 3 days p.i., % control, 100 μg/ml, added 42 hr): 15%
activity at 100 µg/mL (HIV-1 infected JM cells; Human immunodeficiency virus 1, 96 h, read-out: p24 antigen 4 days p.i., % control, 100 μg/ml, added 24 hr): 70%
activity at 100 µg/mL (HIV-1 infected JM cells; Human immunodeficiency virus 1, 96 h, read-out: p24 antigen 4 days p.i., % control, 100 μg/ml, added 42 hr): > 100%
Back titration of cell-free supernatants at 6 days p.i. (HIV-1; 25 μg/ml): 1.9 × 10^3 SFUs/ml and 2.5 × 10^3 SFUs/ml
Back titration of cell-free supernatants at 6 days p.i. (HIV-1; 100 μg/ml): < 10^1 SFUs/ml
viral infectivity in the cell-free supernatants (HIV-1): absence of viral infectivity
